# Where a SMILES comes first, the peptide text is derived from it.
# Legend:
# S. aureus ATCC25923 = assay: MIC, broth dilution, standard strain; assay type: cell-based; details: broth dilution (CLSI), MHB, 37 °C, 16–20 h
# Experimental: (§1) The standard strains, including S. aureus ATCC29213 and ATCC25923, E. faecalis ATCC29212, E. coli ATCC25922 and ATCC35218, A. baumannii ATCC19606, K. pneumoniae ATCC700603, and P. aeruginosa ATCC27853, were purchased from the China Center of Type Culture Collection (CCTCC). The clinical strains of the ESKAPE pathogens were isolated from the affiliated hospitals of Hubei University of Medicine. All of them were stored at −80 °C before use. The drug sensitivities of the clinical strains were determined by the Kirby–Bauer test.
# (§2) The MICs were determined using the broth dilution method according to the guidelines of the Clinical and Laboratory Standards Institute (CLSI), as described in the previous studies. Briefly, the bacterial cells were incubated in Mueller–Hinton broth (MHB, Oxoid, Basingstoke, UK) at 37 °C and 150 rpm to the mid-growth phase and diluted to achieve a final concentration of 5 × 10^5 colony-forming units per milliliter (CFU/mL). Then, the cells were mixed with each peptide in different concentrations (1, 2, 4, 8, 16, 32, and 64 μg/mL). […] All experiments were repeated at least three times.
# E. coli ATCC35218 = assay: MIC, broth dilution, standard strain; assay type: cell-based; details: broth dilution (CLSI), MHB, 37 °C, 16–20 h
# Experimental: as §1, §2
# E. faecium ATCC29212 = assay: MIC, broth dilution, standard strain; assay type: cell-based; details: broth dilution (CLSI), MHB, 37 °C, 16–20 h
# Experimental: as §1, §2
# S. aureus ATCC29213 = assay: MIC, broth dilution, standard strain; assay type: cell-based; details: broth dilution (CLSI), MHB, 37 °C, 16–20 h
# Experimental: as §1, §2
# K. pneumoniae ATCC700603 = assay: MIC, broth dilution, standard strain; assay type: cell-based; details: broth dilution (CLSI), MHB, 37 °C, 16–20 h
# Experimental: as §1, §2
# P. aeruginosa ATCC27853 = assay: MIC, broth dilution, standard strain; assay type: cell-based; details: broth dilution (CLSI), MHB, 37 °C, 16–20 h
# Experimental: as §1, §2
# E. coli ATCC25922 = assay: MIC, broth dilution, standard strain; assay type: cell-based; details: broth dilution (CLSI), MHB, 37 °C, 16–20 h
# Experimental: as §1, §2
# A. baumannii ATCC19606 = assay: MIC, broth dilution, standard strain; assay type: cell-based; details: broth dilution (CLSI), MHB, 37 °C, 16–20 h
# Experimental: as §1, §2
# [1] = tested on: carbapenem-resistant (CRE) A. baumannii; details: cited from earlier work
# Description: A wealth of CαAMPs have been identified from the venom glands of various scorpion species. Among these peptides, the members of short cationic AMP family are a group of cationic α-helical peptides with 17 to 19 residues, including Ctriporin [17], Mucroporin [18], Imcroporin [19], Stigmurin [20], TsAP-1 and TsAP-2 [21], AamAP1 and AamAP2 [22], and BmKb1 and BmKb2 [23]. Some peptides from this family were reported to show antimicrobial activity against methicillin-resistant S. aureus. We identified Lausporin-2 from the venom of Liocheles au ...
# S. epidermidis 6943 = assay: MIC, broth dilution, clinical isolate; assay type: cell-based; details: MRSE clinical isolate
# Experimental: as §1, §2
# K. pneumoniae 9126 = assay: MIC, broth dilution, clinical isolate; assay type: cell-based; details: CRE clinical isolate
# Experimental: as §1, §2
# A. baumannii 19295 = assay: MIC, broth dilution, clinical isolate; assay type: cell-based; details: CRE/MDR clinical isolate
# Experimental: as §1, §2
# S. aureus 891 = assay: MIC, broth dilution, clinical isolate; assay type: cell-based; details: MRSA clinical isolate
# Experimental: as §1, §2
# E. coli 2687 = assay: MIC, broth dilution, clinical isolate; assay type: cell-based; details: ESBL clinical isolate
# Experimental: as §1, §2
# A. baumannii 19462 = assay: MIC, broth dilution, clinical isolate; assay type: cell-based; details: CRE/MDR clinical isolate
# Experimental: as §1, §2
# S. epidermidis 9092 = assay: MIC, broth dilution, clinical isolate; assay type: cell-based; details: MRSE clinical isolate
# Experimental: as §1, §2
# E. faecium 898 = assay: MIC, broth dilution, clinical isolate; assay type: cell-based; details: MDR clinical isolate
# Experimental: as §1, §2
# S. aureus 9124 = assay: MIC, broth dilution, clinical isolate; assay type: cell-based; details: MRSA clinical isolate
# Experimental: as §1, §2
# A. baumannii 19618 = assay: MIC, broth dilution, clinical isolate; assay type: cell-based; details: CRE/MDR clinical isolate
# Experimental: as §1, §2
# S. capitis 3255 = assay: MIC, broth dilution, clinical isolate; assay type: cell-based; details: MRSC clinical isolate
# Experimental: as §1, §2
# E. coli 2678 = assay: MIC, broth dilution, clinical isolate; assay type: cell-based; details: ESBL clinical isolate
# Experimental: as §1, §2
# P. aeruginosa 9014 = assay: MIC, broth dilution, clinical isolate; assay type: cell-based; details: CRE/MDR clinical isolate
# Experimental: as §1, §2
# [2] = 5 × 10^5 CFU/mL, OD630, repeated at least three times
# [3] = broth dilution (CLSI), MHB, 5 × 10^5 CFU/mL, 37 °C, 16–20 h, OD630
structure (smiles),measurement,setting,value
CC[C@H](C)[C@H](NC(=O)[C@H](C)NC(=O)CNC(=O)[C@@H]1CCCN1C(=O)[C@@H](NC(=O)[C@H](CC(C)C)NC(=O)CNC(=O)[C@H](Cc1c[nH]c2ccccc12)NC(=O)[C@H](CC(C)C)NC(=O)[C@@H](N)Cc1ccccc1)[C@@H](C)CC)C(=O)N[C@@H](CO)C(=O)N[C@@H](C)C(=O)N[C@H](C(=O)N[C@H](C(=O)N[C@@H](CO)C(=O)N[C@@H](CC(C)C)C(=O)N[C@H](C(=O)N[C@@H](CCCCN)C(=O)N[C@@H](CCCCN)C(N)=O)[C@@H](C)CC)[C@@H](C)O)C(C)C [Ctriporin] (H-FLWGLIPGAISAVTSLIKK-NH2; N-terminus assumed),MICs,S. aureus ATCC25923; [2],32 µg/mL
same,MICs,S. aureus ATCC25923; value in parentheses,15.9 µM
same,MICs,E. coli ATCC35218; [2],> 64 µg/mL
same,MICs,E. coli ATCC35218; value in parentheses,> 31.8 µM
same,MICs,E. faecium ATCC29212; [2],64 µg/mL
same,MICs,E. faecium ATCC29212; value in parentheses,31.8 µM
same,MICs,S. aureus ATCC29213; [2],16 µg/mL
same,MICs,S. aureus ATCC29213; value in parentheses,8.0 µM
same,MICs,K. pneumoniae ATCC700603; [2],> 64 µg/mL
same,MICs,K. pneumoniae ATCC700603; value in parentheses,> 31.8 µM
same,MICs,P. aeruginosa ATCC27853; [2],> 64 µg/mL
same,MICs,P. aeruginosa ATCC27853; value in parentheses,> 31.8 µM
same,MICs,E. coli ATCC25922; [2],64 µg/mL
same,MICs,E. coli ATCC25922; value in parentheses,31.8 µM
same,MICs,A. baumannii ATCC19606; [2],16 µg/mL
same,MICs,A. baumannii ATCC19606; value in parentheses,8.0 µM
same,antimicrobial activity against carbapenem-resistant (CRE) A. baumannii,[1],moderate antimicrobial activity
same,MICs,S. epidermidis 6943; [3],8 µg/mL
same,MICs,S. epidermidis 6943; value in parentheses,4.0 µM
same,MICs,K. pneumoniae 9126; [3],> 64 µg/mL
same,MICs,K. pneumoniae 9126; value in parentheses,> 31.8 µM
same,MICs,A. baumannii 19295; [3],32 µg/mL
same,MICs,A. baumannii 19295; value in parentheses,15.9 µM
same,MICs,S. aureus 891; [3],16 µg/mL
same,MICs,S. aureus 891; value in parentheses,8.0 µM
same,MICs,E. coli 2687; [3],> 64 µg/mL
same,MICs,E. coli 2687; value in parentheses,> 31.8 µM
same,MICs,A. baumannii 19462; [3],16 µg/mL
same,MICs,A. baumannii 19462; value in parentheses,8.0 µM
same,MICs,S. epidermidis 9092; [3],8 µg/mL
same,MICs,S. epidermidis 9092; value in parentheses,4.0 µM
same,MICs,E. faecium 898; [3],16 µg/mL
same,MICs,E. faecium 898; value in parentheses,8.0 µM
same,MICs,S. aureus 9124; [3],8 µg/mL
same,MICs,S. aureus 9124; value in parentheses,4.0 µM
same,MICs,A. baumannii 19618; [3],32 µg/mL
same,MICs,A. baumannii 19618; value in parentheses,15.9 µM
same,MICs,S. capitis 3255; [3],8 µg/mL
same,MICs,S. capitis 3255; value in parentheses,4.0 µM
same,MICs,E. coli 2678; [3],64 µg/mL
same,MICs,E. coli 2678; value in parentheses,31.8 µM
same,MICs,P. aeruginosa 9014; [3],> 64 µg/mL
same,MICs,P. aeruginosa 9014; value in parentheses,> 31.8 µM
